Literature values as cited in patent US12594266B2, “Triterpenoid antifungals for the treatment or prevention of Pneumocystis spp. pneumonia” (priority 2019, dated 2026).
Read-outs that look alike come from different tables or passages of the source. *1 amine or outer side, *2 acyl side, *3 side chain or, on linkers, in order; H or OH if unused. Where a SMILES comes first, the peptide text is derived from it. Bridges are numbered along the chain shown (N, C = ends). [ ]: non-standard residue; d: D form. The star is where a group is joined. hTyr(3S-OH,4S-OH,3'-OSO3H) = N[C@H](C(=O)O)[C@H](O)[C@@H](O)c1ccc(O)c(OS(=O)(=O)O)c1; Orn(4R-OH,5R-OH) = O=C([C@H](C[C@@H](O)[C@@H](O)N[*:3])N[*:1])[*:2]; Pro(3S-OH,4S-Me) = C[C@H]1CN[C@H](C(=O)O)[C@H]1O; X1 = CCCCCOc1ccc(-c2cc(-c3ccc(C(=O)*)cc3)no2)cc1; Gln(3R-OH) = NC(=O)C[C@@H](O)[C@H](N)C(=O)O; Hyp = O=C(O)[C@@H]1C[C@@H](O)CN1

Columns and labels:
[1] = test system: Pneumocystis spp.; conditions: cited from earlier work; for relative effectiveness among echinocandins: murine PCP
[2] = total radioactivity, 15 mg/kg oral, male pigmented Long-Evans rats, cited from earlier work

Structure (SMILES): CC[C@H](C)C[C@H](C)CCCCCCCCC(=O)N[C@H]1C[C@@H](O)[C@@H](NCCN)NC(=O)[C@@H]2[C@@H](O)CCN2C(=O)[C@H]([C@H](O)CCN)NC(=O)[C@H]([C@H](O)[C@@H](O)c2ccc(O)cc2)NC(=O)[C@@H]2C[C@@H](O)CN2C(=O)[C@H]([C@@H](C)O)NC1=O [caspofungin]
- relative effectiveness among echinocandins [1]: most effective

Structure (SMILES): CC(C)[C@@H](C)[C@@]1(C)CC[C@]2(C)[C@H]3CC[C@@H]4[C@@]5(COC[C@]4(C)[C@@H](OC[C@](C)(N)C(C)(C)C)[C@H](n4ncnc4-c4ccncc4)C5)C3=CC[C@@]2(C)[C@@H]1C(=O)O [[^14C]-SCY-078]
- AUCall ([2]; Adrenal gland): 321.126 μg equiv*h/g
- Tissue:Blood AUC Ratio ([2]; Adrenal gland): 48.431
- AUCall ([2]; Blood (cardiac)): 6.631 μg equiv*h/g
- Tissue:Blood AUC Ratio ([2]; Blood (cardiac)): 1.000
- AUCall ([2]; Bone marrow (femur)): 238.388 μg equiv*h/g
- Tissue:Blood AUC Ratio ([2]; Bone marrow (femur)): 35.953
- AUCall ([2]; Bone): 9.022 μg equiv*h/g
- Tissue:Blood AUC Ratio ([2]; Bone): 1.361
- AUCall ([2]; Brain (cerebrum)): 0.727 μg equiv*h/g
- Tissue:Blood AUC Ratio ([2]; Brain (cerebrum)): 0.110
- AUCall ([2]; Cecum): 83.542 μg equiv*h/g
- Tissue:Blood AUC Ratio ([2]; Cecum): 12.600
- AUCall ([2]; Epididymis): 75.355 μg equiv*h/g
- Tissue:Blood AUC Ratio ([2]; Epididymis): 11.365
- AUCall ([2]; Esophagus): 41.430 μg equiv*h/g
- Tissue:Blood AUC Ratio ([2]; Esophagus): 6.248
- AUCall ([2]; Exorbital gland): 523.676 μg equiv*h/g
- Tissue:Blood AUC Ratio ([2]; Exorbital gland): 78.980
- AUCall ([2]; Eye (lens)): 0.084 μg equiv*h/g
- Tissue:Blood AUC Ratio ([2]; Eye (lens)): 0.013
- AUCall ([2]; Eye (uvea)): 777.035 μg equiv*h/g
- Tissue:Blood AUC Ratio ([2]; Eye (uvea)): 117.191
- AUCall ([2]; Heart (myocardium)): 66.558 μg equiv*h/g
- Tissue:Blood AUC Ratio ([2]; Heart (myocardium)): 10.038
- AUCall ([2]; Kidney (cortex)): 165.880 μg equiv*h/g
- Tissue:Blood AUC Ratio ([2]; Kidney (cortex)): 25.018
- AUCall ([2]; Kidney (medulla)): 136.610 μg equiv*h/g
- Tissue:Blood AUC Ratio ([2]; Kidney (medulla)): 20.603
- AUCall ([2]; Large intestine): 57.682 μg equiv*h/g
- Tissue:Blood AUC Ratio ([2]; Large intestine): 8.727
- AUCall ([2]; Liver): 374.517 μg equiv*h/g
- Tissue:Blood AUC Ratio ([2]; Liver): 56.484
- AUCall ([2]; Lung): 175.593 μg equiv*h/g
- Tissue:Blood AUC Ratio ([2]; Lung): 26.483
- AUCall ([2]; Lymph node): 251.036 μg equiv*h/g
- Tissue:Blood AUC Ratio ([2]; Lymph node): 37.861
- AUCall ([2]; Oral mucosa): 36.782 μg equiv*h/g
- Tissue:Blood AUC Ratio ([2]; Oral mucosa): 5.547
- AUCall ([2]; Pancreas): 110.455 μg equiv*h/g
- Tissue:Blood AUC Ratio ([2]; Pancreas): 16.659
- AUCall ([2]; Pituitary): 640-809 μg equiv*h/g
- Tissue:Blood AUC Ratio ([2]; Pituitary): 96.645
- AUCall ([2]; Prostate gland): 61.301 μg equiv*h/g
- Tissue:Blood AUC Ratio ([2]; Prostate gland): 9.245
- AUCall ([2]; Salivary gland): 149.193 μg equiv*h/g
- Tissue:Blood AUC Ratio ([2]; Salivary gland): 22.501
- AUCall ([2]; Seminal vesicle): 26.827 μg equiv*h/g
- Tissue:Blood AUC Ratio ([2]; Seminal vesicle): 4.046
- AUCall ([2]; Skeletal muscle): 28.304 μg equiv*h/g
- Tissue:Blood AUC Ratio ([2]; Skeletal muscle): 4.269
- AUCall ([2]; Skin (non-pigmented)): 74.884 μg equiv*h/g
- Tissue:Blood AUC Ratio ([2]; Skin (non-pigmented)): 11.294
- AUCall ([2]; Skin (pigmented)): 110.249 μg equiv*h/g
- Tissue:Blood AUC Ratio ([2]; Skin (pigmented)): 16.627
- AUCall ([2]; Small intestine): 141.607 μg equiv*h/g
- Tissue:Blood AUC Ratio ([2]; Small intestine): 21.357
- AUCall ([2]; Spleen): 507.638 μg equiv*h/g
- Tissue:Blood AUC Ratio ([2]; Spleen): 75.561
- AUCall ([2]; Stomach (gastric mucosa)): 181.074 μg equiv*h/g
- Tissue:Blood AUC Ratio ([2]; Stomach (gastric mucosa)): 27.309
- AUCall ([2]; Testis): 64.972 μg equiv*h/g
- Tissue:Blood AUC Ratio ([2]; Testis): 9.799
- AUCall ([2]; Thymus): 195.608 μg equiv*h/g
- Tissue:Blood AUC Ratio ([2]; Thymus): 29.501
- AUCall ([2]; Thyroid): 291.187 μg equiv*h/g
- Tissue:Blood AUC Ratio ([2]; Thyroid): 43.916
- AUCall ([2]; Urinary bladder): 45.955 μg equiv*h/g
- Tissue:Blood AUC Ratio ([2]; Urinary bladder): 6.931

Structure (SMILES): CCCCCOc1ccc(-c2cc(-c3ccc(C(=O)N[C@H]4C[C@@H](O)[C@@H](O)NC(=O)[C@@H]5[C@@H](O)[C@@H](C)CN5C(=O)[C@H]([C@H](O)CC(N)=O)NC(=O)[C@H]([C@H](O)[C@@H](O)c5ccc(O)c(OS(=O)(=O)O)c5)NC(=O)[C@@H]5C[C@@H](O)CN5C(=O)[C@H]([C@@H](C)O)NC4=O)cc3)no2)cc1 [micafungin] (X1-[Orn(4R-OH,5R-OH)]T[Hyp][hTyr(3S-OH,4S-OH,3'-OSO3H)][Gln(3R-OH)][Pro(3S-OH,4S-Me)]; lactam 1-C)
- trophic burden versus untreated control mice ([1]; any dose, intraperitoneal, 3 weeks): no significant reduction
- relative effectiveness among echinocandins [1]: least effective
